{"source": "patent US9550742B2", "about": "“11-OXO-10,11-dihydrodibenzo[B,F][1,4]thiazepine S-oxide derivatives and their use as dopamine D2 receptor antagonists” (The United States of America, as Represented by the …, priority 2013, dated 2017)", "key": {"[1]": {"target": "M1 (Homo sapiens, UniProt P11229)", "experiment": "Affinity profile panel: M1", "settings": "inhibition of binding"}, "[2]": {"target": "H2 (Homo sapiens, UniProt P25021)", "sequence (P25021 whole entry)": "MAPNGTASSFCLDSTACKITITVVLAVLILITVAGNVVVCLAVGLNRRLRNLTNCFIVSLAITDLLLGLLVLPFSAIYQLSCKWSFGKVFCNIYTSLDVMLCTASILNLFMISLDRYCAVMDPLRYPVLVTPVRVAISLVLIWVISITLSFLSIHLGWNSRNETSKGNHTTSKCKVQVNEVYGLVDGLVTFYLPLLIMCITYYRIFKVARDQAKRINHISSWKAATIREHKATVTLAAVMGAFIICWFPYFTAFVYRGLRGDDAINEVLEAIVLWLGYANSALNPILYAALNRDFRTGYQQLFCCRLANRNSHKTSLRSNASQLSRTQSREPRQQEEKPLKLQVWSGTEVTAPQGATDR", "experiment": "Affinity profile panel: H2", "settings": "inhibition of binding"}, "[3]": {"target": "5-HT1D (Homo sapiens, UniProt P28221)", "experiment": "Affinity profile panel: 5-HT1D", "settings": "inhibition of binding"}, "[4]": {"target": "M3 (Homo sapiens, UniProt P20309)", "sequence (P20309 whole entry)": "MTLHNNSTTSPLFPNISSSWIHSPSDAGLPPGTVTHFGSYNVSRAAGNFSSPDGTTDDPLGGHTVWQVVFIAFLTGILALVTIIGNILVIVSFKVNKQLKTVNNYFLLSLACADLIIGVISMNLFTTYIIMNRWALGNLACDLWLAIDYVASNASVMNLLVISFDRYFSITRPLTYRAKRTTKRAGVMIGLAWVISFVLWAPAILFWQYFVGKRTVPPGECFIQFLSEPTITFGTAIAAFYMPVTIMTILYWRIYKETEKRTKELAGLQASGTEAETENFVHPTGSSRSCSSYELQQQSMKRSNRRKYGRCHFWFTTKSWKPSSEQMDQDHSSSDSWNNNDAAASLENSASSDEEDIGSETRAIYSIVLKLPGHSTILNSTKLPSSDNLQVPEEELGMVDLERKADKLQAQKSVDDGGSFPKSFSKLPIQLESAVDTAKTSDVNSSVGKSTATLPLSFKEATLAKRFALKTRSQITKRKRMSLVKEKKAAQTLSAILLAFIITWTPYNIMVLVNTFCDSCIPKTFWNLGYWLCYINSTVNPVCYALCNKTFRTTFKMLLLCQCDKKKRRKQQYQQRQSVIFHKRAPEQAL", "experiment": "Affinity profile panel: M3", "settings": "inhibition of binding"}, "[5]": {"target": "Beta3 (Homo sapiens, UniProt P13945)", "sequence (P13945 whole entry)": "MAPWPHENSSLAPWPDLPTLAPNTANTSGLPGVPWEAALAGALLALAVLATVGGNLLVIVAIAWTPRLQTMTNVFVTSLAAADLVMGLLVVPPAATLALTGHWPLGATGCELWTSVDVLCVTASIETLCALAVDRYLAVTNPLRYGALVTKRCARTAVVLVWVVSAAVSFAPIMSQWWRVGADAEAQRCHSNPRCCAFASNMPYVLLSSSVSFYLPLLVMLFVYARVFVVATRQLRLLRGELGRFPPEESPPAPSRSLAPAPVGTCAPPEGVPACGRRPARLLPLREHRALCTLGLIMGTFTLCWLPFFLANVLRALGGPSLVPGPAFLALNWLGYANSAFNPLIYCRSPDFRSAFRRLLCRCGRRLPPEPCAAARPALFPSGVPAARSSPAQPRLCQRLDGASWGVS", "experiment": "Affinity profile panel: Beta3", "settings": "inhibition of binding"}, "[6]": {"target": "5-HT2B (Homo sapiens, UniProt P41595)", "experiment": "Affinity profile panel: 5-HT2B", "settings": "inhibition of binding", "source_text": "(§1) Antipsychotic drugs (depending on the specific drug) typically interact with a range of serotonergic, adrenergic, histaminergic, and muscarinic receptors."}, "[7]": {"target": "M4 (Homo sapiens, UniProt P08173)", "experiment": "Affinity profile panel: M4", "settings": "inhibition of binding"}, "[8]": {"target": "T1, D2 receptor (Rattus norvegicus, UniProt P61169)", "T1 construct": "from tissue; host or cells: live rats (whole animal)", "T1 sequence (P61169 whole entry)": "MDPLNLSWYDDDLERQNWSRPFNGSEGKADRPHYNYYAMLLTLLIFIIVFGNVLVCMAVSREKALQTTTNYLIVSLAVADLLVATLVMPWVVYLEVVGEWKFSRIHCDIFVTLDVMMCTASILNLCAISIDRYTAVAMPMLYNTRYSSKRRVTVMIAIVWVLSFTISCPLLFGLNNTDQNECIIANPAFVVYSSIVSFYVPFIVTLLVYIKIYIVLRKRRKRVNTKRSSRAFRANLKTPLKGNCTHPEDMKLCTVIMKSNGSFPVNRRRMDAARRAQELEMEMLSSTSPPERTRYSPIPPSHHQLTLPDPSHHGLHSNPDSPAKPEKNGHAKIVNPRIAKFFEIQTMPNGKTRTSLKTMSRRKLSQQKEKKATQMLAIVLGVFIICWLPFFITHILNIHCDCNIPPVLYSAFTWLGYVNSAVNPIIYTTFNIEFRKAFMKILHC", "experiment": "Sumanirole-induced hypothermia", "format": "in vivo", "settings": "rats, subcutaneously", "source_text": "These experiments test the ability of a compound of Formula I, ML321, to affect physiological or behavioral responses in rats that are mediated by D2 or D3 receptors. Sumanirole, an agonist of the D2 receptor, produces hypothermia in rats when administered subcutaneously. This response is known to be mediated by the D2 receptor and not the D3 receptor (Collins et al., Psychopharmacology (Berl). 2007, 193(2):159-70).\nThe sumanirole-induced hypothermia and pramipexole-induced yawning experiments show ML321 can act selectively to block the D2 receptor without blocking the D3 receptor when administered to living animals. Thus, the D2 selectivity identified using cellular assays can also be seen in living animals."}, "[9]": {"target": "D3 human dopamine receptors (Homo sapiens, UniProt P35462)", "experiment": "D3 binding assay ([^3H]methylspiperone, HEK293 membranes)", "experimental": "Cells were cultured in Dulbecco's modified Eagle's Medium containing 10% FBS, 1,000 units/mL Penicillin, 1,000 mg/mL Streptomycin, 100 mM Sodium Pyruvate, 1 μg/mL Gentamicin, and […] G418. All cells were maintained at 37° C. in 5% CO2 and 90% humidity. For radioligand binding assays, cells were removed mechanically using calcium and magnesium-free Earle's Balanced Salt Solution (EBSS(−)). Intact cells were collected by centrifugation and then lysed with 5 mM Tris-HCl and 5 mM MgCl2 at pH 7.4 in a glass homogenizer. […] Membrane preparations were incubated for 90 min at room temperature with various concentrations of radioligand in a reaction volume of 250 μL EBSS containing 200 mM sodium metabisulfite. […] Bound ligand was separated from unbound by filtration through GF/C filters using a PerkinElmer cell harvester with ice cold EBSS (4 washes) and quantified on a Top-count (PerkinElmer) after addition of scintillation solution. […] In order to determine the affinity of a given compound for a receptor type, competition-binding assays were performed. […] Reactions were incubated, terminated, and quantified as indicated above."}, "[10]": {"target": "5-HT5A (Homo sapiens, UniProt P47898)", "sequence (P47898 whole entry, species assumed)": "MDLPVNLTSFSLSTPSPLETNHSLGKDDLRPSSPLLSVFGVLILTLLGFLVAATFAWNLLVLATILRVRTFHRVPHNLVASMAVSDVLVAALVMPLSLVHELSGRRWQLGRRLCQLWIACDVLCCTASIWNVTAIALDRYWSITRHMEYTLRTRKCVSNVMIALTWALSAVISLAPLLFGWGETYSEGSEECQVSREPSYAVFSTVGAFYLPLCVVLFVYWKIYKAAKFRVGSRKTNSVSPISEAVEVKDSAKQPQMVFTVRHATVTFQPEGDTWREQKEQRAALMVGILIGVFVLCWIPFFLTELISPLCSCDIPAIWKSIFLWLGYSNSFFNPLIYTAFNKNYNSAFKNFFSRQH", "experiment": "Affinity profile panel: 5-HT5A", "settings": "inhibition of binding"}, "[11]": {"target": "D3 dopamine receptor (DAR) (Homo sapiens, UniProt P35462)", "experiment": "D3 beta-arrestin functional assay (PathHunter, CHO)", "format": "cell-based", "settings": "dose response curve; read-out: D3 β-arrestin assay AC50", "description": "A CHO cell line was engineered to overexpress D3 dopamine receptor (DAR) and fused with a small 42-amino acid fragment of β-gal called ProLink™. In addition, these cells stably express a fusion protein of β-arrestin and a larger N-terminal deletion mutant of β-galactosidase (“enzyme acceptor”). When DAR is activated by dopamine, it stimulates binding of β-arrestin to ProLink-tagged DARs, and the two complementary parts of β-galactosidase form a functional enzyme. When substrate (PathHunter® Detection reagent) is added, βgalactosidase hydrolyzes it and generates a chemiluminescent signal.\nFor the 1,536-well assay, D3 PathHunter® β-arrestin cells were seeded at 2,100 cells/well in 3 μL/well media (DiscoveRx Plating Reagent 2) with MultiDrop Combi dispenser (Thermo Scientific, Logan, Utah) onto white tissue culture treated 1,536-well Aurora plates (Brooks Automation, Chelmsford, Mass.) and allowed to attach overnight at 37° C., 5% CO2. Next, 23 nL/well of compound solutions in DMSO were added with a pintool transfer (Kalypsis, San Diego, Calif.). The cells were stimulated by compounds for 90 minutes at 37° C., 5% CO2, after which 1.5 μL/well of DiscoveRx detection reagent was added with BioRAPTR FRD dispenser. […] The plates were incubated at ambient temperature for 1 h, and the luminescent signal was read on ViewLux plate reader (PerkinElmer, Waltham, Mass.)."}, "[12]": {"target": "Alpha2B (Homo sapiens, UniProt P18089)", "experiment": "Affinity profile panel: Alpha2B", "settings": "inhibition of binding"}, "[13]": {"target": "Sigma 1 (Homo sapiens, UniProt Q99720)", "experiment": "Affinity profile panel: Sigma 1", "settings": "inhibition of binding"}, "[14]": {"target": "T2, D1 (Homo sapiens, UniProt P21728)", "T2 sequence (P21728 whole entry)": "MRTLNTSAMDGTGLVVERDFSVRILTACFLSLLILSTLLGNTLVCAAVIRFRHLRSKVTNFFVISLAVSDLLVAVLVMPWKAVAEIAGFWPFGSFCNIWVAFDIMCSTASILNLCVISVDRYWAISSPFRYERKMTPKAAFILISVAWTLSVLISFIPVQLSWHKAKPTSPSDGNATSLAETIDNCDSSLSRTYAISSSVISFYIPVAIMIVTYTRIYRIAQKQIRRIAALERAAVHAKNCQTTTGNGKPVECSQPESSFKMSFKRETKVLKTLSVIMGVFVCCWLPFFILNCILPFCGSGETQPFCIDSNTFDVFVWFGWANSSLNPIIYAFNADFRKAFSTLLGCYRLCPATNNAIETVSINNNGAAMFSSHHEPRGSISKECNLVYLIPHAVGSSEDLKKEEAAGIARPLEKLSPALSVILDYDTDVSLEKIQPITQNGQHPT", "experiment": "D1 binding assay (FIG. 2B)"}, "[15]": {"target": "Alpha1B (Homo sapiens, UniProt P35368)", "experiment": "Affinity profile panel: Alpha1B", "settings": "inhibition of binding"}, "[16]": {"target": "H3 (Homo sapiens, UniProt Q9Y5N1)", "sequence (Q9Y5N1 whole entry)": "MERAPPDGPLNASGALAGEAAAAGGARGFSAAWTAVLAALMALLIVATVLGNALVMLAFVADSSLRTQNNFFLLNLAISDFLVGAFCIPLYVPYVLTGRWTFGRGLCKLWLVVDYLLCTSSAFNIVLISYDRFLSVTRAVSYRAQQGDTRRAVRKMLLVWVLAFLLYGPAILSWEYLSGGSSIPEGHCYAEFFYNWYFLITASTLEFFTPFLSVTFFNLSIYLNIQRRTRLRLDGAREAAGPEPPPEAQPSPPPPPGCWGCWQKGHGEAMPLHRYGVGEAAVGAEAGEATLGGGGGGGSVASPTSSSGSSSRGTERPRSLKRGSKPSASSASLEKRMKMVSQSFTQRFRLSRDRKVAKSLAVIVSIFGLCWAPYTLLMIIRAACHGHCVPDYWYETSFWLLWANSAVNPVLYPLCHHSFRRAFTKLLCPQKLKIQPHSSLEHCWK", "experiment": "Affinity profile panel: H3", "settings": "inhibition of binding"}, "[17]": {"target": "D5 (Homo sapiens, UniProt P21918)", "experiment": "Affinity profile panel: D5", "settings": "inhibition of binding"}, "[18]": {"target": "Alpha2A (Homo sapiens, UniProt P08913)", "experiment": "Affinity profile panel: Alpha2A", "settings": "inhibition of binding"}, "[19]": {"target": "5-HT3 (Homo sapiens, UniProt P46098)", "sequence (P46098 24-478, species assumed)": "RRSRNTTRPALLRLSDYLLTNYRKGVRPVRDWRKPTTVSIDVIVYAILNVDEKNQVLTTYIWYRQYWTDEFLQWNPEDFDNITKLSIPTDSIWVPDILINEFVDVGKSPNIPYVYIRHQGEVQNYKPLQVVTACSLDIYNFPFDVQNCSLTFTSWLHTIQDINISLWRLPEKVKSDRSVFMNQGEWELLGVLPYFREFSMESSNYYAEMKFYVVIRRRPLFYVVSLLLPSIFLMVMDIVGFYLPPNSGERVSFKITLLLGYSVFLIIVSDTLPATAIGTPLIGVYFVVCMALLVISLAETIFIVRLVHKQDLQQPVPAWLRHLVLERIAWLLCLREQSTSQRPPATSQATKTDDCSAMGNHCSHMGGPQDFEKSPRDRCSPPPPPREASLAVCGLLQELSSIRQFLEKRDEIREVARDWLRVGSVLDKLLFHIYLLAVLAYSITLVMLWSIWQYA", "experiment": "Affinity profile panel: 5-HT3", "settings": "inhibition of binding"}, "[20]": {"target": "MOR (Homo sapiens, UniProt P35372)", "sequence (P35372 whole entry)": "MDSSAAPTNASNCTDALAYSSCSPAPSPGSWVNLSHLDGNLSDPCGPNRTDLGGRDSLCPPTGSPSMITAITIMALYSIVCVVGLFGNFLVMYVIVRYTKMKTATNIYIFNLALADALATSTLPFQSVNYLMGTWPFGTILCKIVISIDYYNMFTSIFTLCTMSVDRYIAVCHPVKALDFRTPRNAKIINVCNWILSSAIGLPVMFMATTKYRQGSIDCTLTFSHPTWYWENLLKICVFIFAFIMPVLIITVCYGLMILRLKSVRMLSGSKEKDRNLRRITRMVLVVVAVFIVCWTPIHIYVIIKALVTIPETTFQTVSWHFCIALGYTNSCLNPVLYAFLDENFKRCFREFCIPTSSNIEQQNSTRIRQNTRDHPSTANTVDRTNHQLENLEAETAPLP", "experiment": "Affinity profile panel: MOR", "settings": "inhibition of binding"}, "[21]": {"target": "5-HT2C (Homo sapiens, UniProt P28335)", "sequence (P28335 33-458, species assumed)": "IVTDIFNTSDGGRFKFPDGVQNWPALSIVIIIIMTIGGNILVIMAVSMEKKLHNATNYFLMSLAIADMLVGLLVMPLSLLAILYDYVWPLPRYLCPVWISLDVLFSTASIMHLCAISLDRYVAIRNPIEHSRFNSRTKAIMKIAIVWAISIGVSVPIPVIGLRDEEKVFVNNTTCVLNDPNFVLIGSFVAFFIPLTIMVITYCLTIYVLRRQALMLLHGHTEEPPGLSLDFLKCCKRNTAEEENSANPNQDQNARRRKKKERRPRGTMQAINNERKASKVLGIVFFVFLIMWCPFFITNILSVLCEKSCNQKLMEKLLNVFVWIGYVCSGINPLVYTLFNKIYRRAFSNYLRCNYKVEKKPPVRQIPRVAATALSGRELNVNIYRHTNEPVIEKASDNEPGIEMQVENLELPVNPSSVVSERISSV", "experiment": "Affinity profile panel: 5-HT2C", "settings": "inhibition of binding", "source_text": "as §1"}, "[22]": {"target": "D4 (Homo sapiens, UniProt P21917)", "experiment": "D4 binding assay (FIG. 2B)"}, "[23]": {"tested_on": "GABAA", "experiment": "Affinity profile panel: GABAA", "settings": "inhibition of binding"}, "[24]": {"target": "Alpha1D (Homo sapiens, UniProt P25100)", "sequence (P25100 whole entry)": "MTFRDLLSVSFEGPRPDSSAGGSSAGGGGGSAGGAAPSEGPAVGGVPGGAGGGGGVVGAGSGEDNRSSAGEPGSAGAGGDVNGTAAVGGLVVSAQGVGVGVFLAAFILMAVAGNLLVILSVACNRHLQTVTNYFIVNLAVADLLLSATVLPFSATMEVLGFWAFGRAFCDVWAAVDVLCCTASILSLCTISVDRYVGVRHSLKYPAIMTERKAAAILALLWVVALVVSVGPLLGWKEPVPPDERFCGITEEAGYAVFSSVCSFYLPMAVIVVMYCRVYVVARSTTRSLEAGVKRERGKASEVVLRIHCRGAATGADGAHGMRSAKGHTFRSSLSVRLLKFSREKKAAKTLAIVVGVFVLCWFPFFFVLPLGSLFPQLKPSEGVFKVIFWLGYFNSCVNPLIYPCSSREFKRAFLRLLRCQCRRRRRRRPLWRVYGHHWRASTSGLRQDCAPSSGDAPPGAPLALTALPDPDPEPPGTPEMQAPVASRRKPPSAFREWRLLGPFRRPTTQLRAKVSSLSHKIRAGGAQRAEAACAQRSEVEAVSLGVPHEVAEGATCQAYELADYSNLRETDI", "experiment": "Affinity profile panel: Alpha1D", "settings": "inhibition of binding"}, "[25]": {"target": "5-HT6 (Homo sapiens, UniProt P50406)", "experiment": "Affinity profile panel: 5-HT6", "settings": "inhibition of binding"}, "[26]": {"target": "D3 (Homo sapiens, UniProt P35462)", "experiment": "Affinity profile panel: D3", "settings": "inhibition of binding"}, "[27]": {"target": "5-HT1A (Homo sapiens, UniProt P08908)", "experiment": "Affinity profile, panel of 46 GPCRs and related proteins: 5-HT1A", "settings": "inhibition of binding"}, "[28]": {"target": "NET (Homo sapiens, UniProt P23975)", "experiment": "Affinity profile panel: NET", "settings": "inhibition of binding", "source_text": "as §1"}, "[29]": {"target": "Sigma 2 (Homo sapiens, UniProt Q5BJF2)", "experiment": "Affinity profile panel: Sigma 2", "settings": "inhibition of binding"}, "[30]": {"target": "DAT (Homo sapiens, UniProt Q01959)", "experiment": "Affinity profile panel: DAT", "settings": "inhibition of binding", "source_text": "as §1"}, "[31]": {"target": "M2 (Homo sapiens, UniProt P08172)", "experiment": "Affinity profile panel: M2", "settings": "inhibition of binding"}, "[32]": {"target": "Alpha2C (Homo sapiens, UniProt P18825)", "experiment": "Affinity profile panel: Alpha2C", "settings": "inhibition of binding"}, "[33]": {"target": "T2, D1", "experiment": "Affinity profile panel: D1", "settings": "inhibition of binding"}}}
{"smiles": "CN1C(=O)c2ccccc2[S@+]([O-])c2ccc(C(=O)NCCc3cccs3)cc21", "note": "[Compound 55, 10-Methyl-11-oxo-N-(2-(thiophen-2-yl)ethyl)-10,11-dihydrodibenzo[b,f][1,4]thiazepine-8-carboxamide 5-(S)-oxide]", "values": [{"measurement": "Inhibition (%) M1", "setting": "[1]", "result": "−0.6", "unit": "%"}, {"measurement": "Inhibition (%) H2", "setting": "[2]", "result": "−9.2", "unit": "%"}, {"measurement": "Inhibition (%) 5-HT1D", "setting": "[3]", "result": 13.1, "unit": "%"}, {"measurement": "Inhibition (%) M3", "setting": "[4]", "result": 5.2, "unit": "%"}, {"measurement": "Inhibition (%) Beta3", "setting": "[5]", "result": 6.6, "unit": "%"}, {"measurement": "Inhibition (%) 5-HT2B", "setting": "[6]", "result": 40.1, "unit": "%"}, {"measurement": "Inhibition (%) M4", "setting": "[7]", "result": 2.4, "unit": "%"}, {"measurement": "Block of sumanirole-induced hypothermia response", "setting": "[8]; 10 mg/kg", "result": "completely blocked"}, {"measurement": "Block of sumanirole-induced hypothermia response", "setting": "[8]; 3.2 and 10 mg/kg", "result": "significantly and dose-dependently block the sumanirole-induced hypothermia response"}, {"measurement": "Ki", "setting": "[9]", "result": 2.9, "unit": "µM"}, {"measurement": "Inhibition (%) 5-HT5A", "setting": "[10]", "result": 9.5, "unit": "%"}, {"measurement": "AC50", "setting": "[11]", "result": 12.9, "unit": "µM"}, {"measurement": "Inhibition (%) Alpha2B", "setting": "[12]", "result": 31.2, "unit": "%"}, {"measurement": "Inhibition (%) Sigma 1", "setting": "[13]", "result": 17.5, "unit": "%"}, {"measurement": "Ki", "setting": "[14]", "result": 67.1, "unit": "µM"}, {"measurement": "Inhibition (%) Alpha1B", "setting": "[15]", "result": "−0.2", "unit": "%"}, {"measurement": "Inhibition (%) H3", "setting": "[16]", "result": "−23.6", "unit": "%"}, {"measurement": "Inhibition (%) D5", "setting": "[17]", "result": "−8.5", "unit": "%"}, {"measurement": "Inhibition (%) Alpha2A", "setting": "[18]", "result": 7.3, "unit": "%"}, {"measurement": "Inhibition (%) 5-HT3", "setting": "[19]", "result": 8.5, "unit": "%"}, {"measurement": "Inhibition (%) MOR", "setting": "[20]", "result": 5.7, "unit": "%"}, {"measurement": "Inhibition (%) 5-HT2C", "setting": "[21]", "result": 64.5, "unit": "%"}, {"measurement": "Ki", "setting": "[22]", "result": 8.48, "unit": "µM"}, {"measurement": "Inhibition (%) GABAA", "setting": "[23]", "result": 10.6, "unit": "%"}, {"measurement": "Inhibition (%) Alpha1D", "setting": "[24]", "result": "−22.6", "unit": "%"}, {"measurement": "Inhibition (%) 5-HT6", "setting": "[25]", "result": "−15.6", "unit": "%"}, {"measurement": "Inhibition (%) D3", "setting": "[26]", "result": 59.1, "unit": "%"}, {"measurement": "Inhibition (%) 5-HT1A", "setting": "[27]", "result": 8.2, "unit": "%"}, {"measurement": "Inhibition (%) NET", "setting": "[28]", "result": 8.9, "unit": "%"}, {"measurement": "Inhibition (%) Sigma 2", "setting": "[29]", "result": "−16.5", "unit": "%"}, {"measurement": "Inhibition (%) DAT", "setting": "[30]", "result": "−5.3", "unit": "%"}, {"measurement": "Inhibition (%) M2", "setting": "[31]", "result": "−1.7", "unit": "%"}, {"measurement": "Inhibition (%) Alpha2C", "setting": "[32]", "result": 20.9, "unit": "%"}, {"measurement": "Inhibition (%) D1", "setting": "[33]", "result": "−6.8", "unit": "%"}]}
